The target of assay [1] is T1, Polyunsaturated fatty acid 5-lipoxygenase (Homo sapiens) (UniProt P09917).
T1 sequence (whole entry): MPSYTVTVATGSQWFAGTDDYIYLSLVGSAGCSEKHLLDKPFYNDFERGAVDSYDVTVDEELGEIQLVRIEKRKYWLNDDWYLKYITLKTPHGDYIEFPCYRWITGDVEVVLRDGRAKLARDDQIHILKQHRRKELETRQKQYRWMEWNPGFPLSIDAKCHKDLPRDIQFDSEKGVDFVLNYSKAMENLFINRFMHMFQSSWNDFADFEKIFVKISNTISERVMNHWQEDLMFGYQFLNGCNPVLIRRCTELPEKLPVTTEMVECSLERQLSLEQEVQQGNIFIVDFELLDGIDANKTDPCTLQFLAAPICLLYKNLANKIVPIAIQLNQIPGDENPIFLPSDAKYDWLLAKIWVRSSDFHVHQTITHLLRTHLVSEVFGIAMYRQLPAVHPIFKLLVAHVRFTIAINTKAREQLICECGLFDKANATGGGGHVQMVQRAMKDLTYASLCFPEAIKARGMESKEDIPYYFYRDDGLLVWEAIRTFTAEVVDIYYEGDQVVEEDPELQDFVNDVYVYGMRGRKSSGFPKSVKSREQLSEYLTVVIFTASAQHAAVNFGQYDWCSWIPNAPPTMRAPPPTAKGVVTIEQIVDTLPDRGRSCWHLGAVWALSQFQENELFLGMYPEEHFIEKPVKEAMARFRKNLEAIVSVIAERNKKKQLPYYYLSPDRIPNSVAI
The experiment in a line: Inhibition of human recombinant 5-lipoxygenase expressed in Escherichia coli Bl21 (DE3) using arachidonic acid as substrate preincubated at 10 uM for 10 mins before substrate addition measured after 10 mins by HPLC analysis.

For assay [2], the target named is T2, Polyunsaturated fatty acid 5-lipoxygenase (Homo sapiens, UniProt P09917).
T2 sequence (P09917 whole entry): T1 sequence (whole entry)
The assay is described as follows: Inhibition of human recombinant 5-lipoxygenase using arachidonic acid as substrate preincubated for 10 mins before substrate addition measured after 10 mins by HPLC analysis.

In general, inhibition refers to the drop in the measured response relative to a control, in per cent. A word on the IC50: it is the concentration needed to halve the response being measured.

As for `OCCc1ccc(O)cc1`, the inhibition in assay [1] was 20%.
Still for that read-out and setting: for `C/C=C1/[C@H](O[C@@H]2O[C@H](CO)[C@@H](O)[C@H](O)[C@H]2O)OC=C(C(=O)OC)[C@H]1CC(=O)OCCc1ccc(O)c(O)c1` the value was 35%.
For the compound `OCCc1ccc(O)c(O)c1` [HYDROXYTYROSOL], the inhibition in assay [1] is 48%. For the same compound, the IC50 in assay [2] came to 13 µM.
As for `C/C=C(/C=O)[C@@H](CC=O)CC(=O)OCCc1ccc(O)cc1`, the inhibition in assay [1] came out at 48%.
With `C/C=C(/C=O)[C@@H](CC=O)CC(=O)OCCc1ccc(O)c(O)c1`, the inhibition in assay [1] came out at 90%. Moreover, the IC50 in assay [2] turned out to be 2 µM.
